Assay results reported in patent US20090264382A1, “Methods for Treating Hematopoietic Neoplasms” (priority 2007, published 2009).
Where a SMILES comes first, the peptide text is derived from it. The star is where a group is joined. Cbz = O=C(OCc1ccccc1)*; CH2F = FC*

Key:
Assay type in all cases: cell-based, human
leukemic cells = assay: Intracellular ROS detection with H2DCFDA
Protocol: Intracellular ROS were detected as previously described (Krejsa & Schieven, Methods Mol Biol 99:35-47 (2000)). Briefly, leukemic cells were loaded with 2 μM H2DCFDA (Molecular Probes) in assay buffer (RPMI with 10 mM HEPES) for 30 min. at 37° C. and mean fluorescent intensity was measured by flow cytometry. Results are shown from triplicate measurements (±SEM) and are representative of three independent experiments (*p<0.05 as compared with untreated cells; n=3).

[1] = system: leukemic cells (HL60, R81, U937, KG1a, THP-1); assay: Protection from CA4P-mediated cell death by ascorbic acid, trypan blue exclusion; conditions: CA4P 5 or 10 nM, 48 hours
Protocol: Leukemic cells were treated with 5 nM (HL60, R81, U937) or 10 nM (KG1a, THP-1) for 48 hours with the ascorbic acid concentrations indicated and viable cells determined by trypan blue exclusion. Results of three experiments in triplicate are expressed as percentage of viable cells compared to control±SEM (*p<0.05 as compared with CA4P-untreated cells; n=3).

caspase-3 = assay: CA4P-induced caspase-3 activation
HL60 cells = assay: Reversal of CA4P-induced apoptosis by caspase inhibitors and ROS scavenger, Annexin V/PI
Protocol: Leukemic cells were treated with or without CA4P for 48 hours in presence of caspase inhibitor Q-VD and the percentage of apoptotic leukemic cells was determined by Annexin V and propidium iodide staining using flow cytometry. Percentage of alive Annexin V(−)/PI(−) cells was plotted.
HL-60 cells were treated with or without CA4P for 48 hours in presence of another ROS scavenger, deferoxamine (DFX), and caspase inhibitor Q-VD and the percentage of apoptotic leukemic cells was determined by Annexin V and propidium iodide staining using flow cytometry.

KG1a leukemic cells = assay: Release of nuclear HMG1 protein into supernatant (necrosis marker), Western blot; conditions: 24 hours, CA4P 20 mM, staurosporine 100 μM as printed
Protocol: Nonetheless, to rule out the possibility that CA4P may trigger necrotic cell death in subsets of the leukemic cells, the release of nuclear HMG1 protein into the culture supernatant, which has been described as a sensitive and highly specific marker for necrotic cell death (Scaffidi, et al. 2002. Nature 418, 191-5), was quantified. For detection of HMG1 protein, KG1a leukemic cells (1×106 in 2 ml X-vivo/5% FBS) were incubated with 100 μM staurosporine to induce apoptosis, freeze-thawed three times to induce necrosis, or treated with 20 mM CA4P for 24 hours. Cells were spun down, pelleted and the supernatant subjected to Western blot for HMG135.

O=C1O[C@H]([C@@H](O)CO)C(O)=C1O [ascorbic acid, reference compound]
effect on CA4P-induced ROS accumulation (leukemic cells): reversal of ROS accumulation | effect of co-incubation on CA4P-mediated cell death [1]: partial decrease in CA4P-mediated cell death

CC(C)[C@H](NC(=O)c1ccc2ccccc2n1)C(=O)N[C@@H](CC(=O)O)C(=O)COc1c(F)cccc1F [Q-VD, Q-VD-OPh]
CA4P-induced caspase-3 activation (caspase-3): blocked | CA4P induced apoptosis blocked (HL60 cells; HL60 cells, 48 hours, Annexin V/PI): 33%

CN[C@@H]1C[C@H]2O[C@@](C)([C@@H]1OC)n1c3ccccc3c3c4c(c5c6ccccc6n2c5c31)C(=O)NC4 [staurosporine, reference compound]
release of nuclear HMG1 protein into the supernatant (KG1a leukemic cells): not

COC(=O)C[C@H](NC(=O)[C@H](C)NC(=O)[C@@H](NC(=O)OCc1ccccc1)C(C)C)C(=O)CF [Z-VAD-fmk] (Cbz-Val-Ala-Asp(OMe)-CH2F)
CA4P-induced caspase-3 activation (caspase-3): blocked | effect on CA4P-induced apoptosis (HL60 cells; data not shown): no effect

CC(=O)N(O)CCCCCNC(=O)CCC(=O)N(O)CCCCCNC(=O)CCC(=O)N(O)CCCCCN [DFX, deferoxamine]
inhibition of CA4P-induced cell death (HL60 cells; HL60, DFX together with caspase inhibitor Q-VD, 48 hours): up to 71%
